Measured values reported in patent publication US20080262068A1, “Method of Tonic Treatment With Oxyphenbutazone Derivatives” (A-Viral ASA, priority 2004, published 2008).
Like-named read-outs stand apart in the source and are kept apart here. One block for each molecule: values may come before it.

Tests used:
[1] = Stability of ring-opened product in aqueous solution; format: physicochemical
Excerpt: The product of Example 4 (PHBPQ, N-phenyl-2-hydroxy-2 butyl-1,3-propanal quinoneimine) was examined for stability in aqueous solution, followed by analysis by ^1H NMR spectroscopy.

[2] = tested on: LOS induced IL-6 production; experiment: LOS induced IL-6 production by PBMC (ELISA); format: cell-based, human; details: for IC50: 24 h LOS stimulation, mean ± SD of at least 3 donors, 0.15-40 μM tested
Experimental: The medium used throughout this Example was Iscoves modified Dulbecco's medium (IMDM, Bio Whittaker, Verviers, Belgium) containing 100 U/ml penicillin, […] streptomycin (Gibco, Merelbeke, Belgium), 50 μM 2-mercaptoethanol (Sigma-Aldrich, Steinheim, Germany), 5% heat-inactivated fetal calf serum (FCS, Bodinco, Alkmaar, the Netherlands) and 20 mg/ml human transferrin (Sigma-Aldrich). All used compounds are endotoxin free.
(§1) PBMC (peripheral blood mononuclear cells) were isolated from freshly drawn blood of a healthy donor and separated over a Percoll gradient (d=1.078, Pharmacia Fine Chemicals AB, Uppsala, Sweden). These isolated PBMC were cultured in 200 μl IMDM (2×10^5 cells/ml) at 37° C. in the presence of 5% CO2 in flat bottom plates (Nunc, Roskilde, Denmark). A combination of 1 μg/ml anti-CD3 and anti-CD28 (CLB.T3/4.E res. CLB.CD28/1, CLB, Amsterdam, The Netherlands) was used for T lymphocyte stimulation. For monocyte stimulation 100 pg/ml lipo-oligosaccharide (LOS, kind gift of Dr. J. Poolman, RIVM, Bilthoven, The Netherlands) was used.
(§2) Cytokine production of T lymphocytes was measured 3 days after anti CD3/anti CD28 stimulation. 1 day after LOS stimulation of the monocytes, cytokine production was measured. At the indicated times, supernatant was harvested and stored at −20° C. until used. IL-1b, IL-6, IL-8, IL-10, IL-12, IL-13, TNFa and IFNg were detected with ELISA kits (PeliKine-compact, CLB, Amsterdam, The Netherlands) according to the protocol. Summarized briefly, mAbs were coated on flat bottom microtitre plates (Nunc, Maxisorb) overnight in 100 μl 0.1 M sodiumbicarbonate at pH 9.6. All incubations were performed in 100 μl at room temperature. Plates were washed 5 times with PBS+0.02% Tween (Mallinckrodt Baker, Deventer, The Netherlands). Samples were incubated together with a biotinylated mAb for 2 hours in High Performance ELISA-buffer (CLB). Plates were washed 5 times with PBS+0.02% Tween and incubated with streptavidin-labeled poly-horseradish peroxidase (CLB) 1:1000 diluted in PBS+2% skimmed milk for 30 minutes. After 5 wash steps the plates were developed with TMB-substrate containing 0.003% H2O2, […] 3,5,3′,5′-tetramethylbenzidine (Merck, Darmstadt, Germany) in 0.11 M sodium acetate, pH 5.5. The reaction was stopped with an equal volume of 2 M H2SO4. The plates were measured in an ELISA-reader at 450 nm, using 540 nm for background measurements. GM-CSF was measured using a protocol similar to that used for the other cytokines. The GM-CSF Abs were a kind gift from Dr. G. Trinchieri (the Wistar Institute, Philadelphia, Pa., USA) In this assay the coating Ab was anti-GM-CSF 9.1 (used at 2 μg/ml), the biotinylated Ab was anti-GM-CSF 16.3 (0.1 μg/ml). rGM-CSF (Sandoz, Basel, Switzerland) and HGF 22.10 (CLB) were used for preparation of a standard curve.
IC50 values (the concentration of the compound needed to inhibit 50% of the maximum response) were determined by using 2-fold titration curves of the compound. The minimum concentration tested was 0.15 μM and the maximum concentration was 40 μM. Results represent the mean ±standard deviation of at least 3 donors. IL-6 in the culture supernatant was determined after 24 h of LOS stimulation of the PBMC by ELISA. GM-CSF in the culture supernatant was determined after 3 days of anti-CD3/anti-CD28 stimulation of the PBMC by ELISA

[3] = tested on: anti-CD3/anti-CD28 induced GM-CSF production; experiment: anti-CD3/anti-CD28 induced GM-CSF production by PBMC (ELISA); format: cell-based, human; details: for IC50: 3 days anti-CD3/anti-CD28 stimulation, mean ± SD of at least 3 donors, 0.15-40 μM tested, read-out: IC50 aCD3/aCD28 stimulation (GM-CSF production); for concentration inhibiting GM-CSF production (total inhibition): concentration series up to 40 μM
Experimental: The medium used throughout this Example was Iscoves modified Dulbecco's medium (IMDM, Bio Whittaker, Verviers, Belgium) containing 100 U/ml penicillin, […] streptomycin (Gibco, Merelbeke, Belgium), 50 μM 2-mercaptoethanol (Sigma-Aldrich, Steinheim, Germany), 5% heat-inactivated fetal calf serum (FCS, Bodinco, Alkmaar, the Netherlands) and 20 mg/ml human transferrin (Sigma-Aldrich).
as §1, §2
IC50 values (the concentration of the compound needed to inhibit 50% of the maximum response) were determined by using 2-fold titration curves of the compound. The minimum concentration tested was 0.15 μM and the maximum concentration was 40 μM. […] IL-6 in the culture supernatant was determined after 24 h of LOS stimulation of the PBMC by ELISA. GM-CSF in the culture supernatant was determined after 3 days of anti-CD3/anti-CD28 stimulation of the PBMC by ELISA

[4] = Human volunteers given 4-OH-OPB orally before LPS infusion: tolerability; format: in vivo; details: 200 mg orally, 2 hours before LPS 4 ng/kg i.v.
Experimental: Eight of the volunteers received 4-OH-OPB 200 mg orally as two tablets of 100 mg and eight were given placebo tablets. Placebo tablets were chemically identical with the exception of the presence of 4-OH-OPB. The study drug and placebo were administered 2 hours prior to infusion of […] coli lipopolysaccharide, lot G1, United States Pharmacopeial Convention, Rockville, Md.) was administered as a bolus intravenous injection at a dose of 4 ng/kg body weight. Blood was drawn directly prior to the administration of 4-OH-OPB, directly prior to injection of LPS and 0.5, 1, 1.5, 2, 3, 4, 5, 6, 8, 10 and 23 hours thereafter for plasma levels of 4-OH-OPB and/or metabolites. Blood was collected in heparinized tubes which were centrifuged at 3000 r.p.m. for 10 minutes at 4° C., after which 2 ml plasma was transferred in acid containing tubes. Blood for ex vivo production of cytokines in whole blood and mononuclear cell (MNC) cultures was taken directly prior to the administration of 4-OH-OPB and directly prior to the injection of LPS (t=-2 hrs and t=0 hrs). Heparinized whole blood or MNCs were incubated with medium, LOS or anti-CD3/CD28. […] Concentrations of TNF-α, IL-6, IL-8, IL-10 were determined in EDTA-anticoagulated plasma by Cytometric Bead Array (Human BD Cytometric Bead Array Kit, BD Biosciences Pharmingen, San Jose, Calif.).

[5] = tested on: monokine production by monocytes; experiment: Effect on other monokines produced by stimulated monocytes; format: cell-based, human
Experimental: as §1
(§3) Cytokine production of T lymphocytes was measured 3 days after anti CD3/anti CD28 stimulation. 1 day after LOS stimulation of the monocytes, cytokine production was measured. At the indicated times, supernatant was harvested and stored at −20° C. until used. IL-1b, IL-6, IL-8, IL-10, IL-12, IL-13, TNFa and IFNg were detected with ELISA kits (PeliKine-compact, CLB, Amsterdam, The Netherlands) according to the protocol. Summarized briefly, mAbs were coated on flat bottom microtitre plates (Nunc, Maxisorb) overnight in 100 μl 0.1 M sodiumbicarbonate at pH 9.6. […] The plates were measured in an ELISA-reader at 450 nm, using 540 nm for background measurements. GM-CSF was measured using a protocol similar to that used for the other cytokines. […]

[6] = tested on: Th1 and Th2 specific cytokine production; experiment: Effect on lymphocyte specific cytokines (Th1 and Th2); format: cell-based, human
Experimental: as §1, §3

[7] = LOS induced IL-6 production, PBMC

re-conversion into 4-OH-OPB when the solution was acidified ([1]; acidified solution): not re-converted into 4-OH—OPB
half-life ([1]; aqueous solution, pH 7.4): 2 to 2.5 h
stability compared with 4-OH-OPB ([1]; pH 7.4): more stable
Molecule: N-phenyl-2-hydroxy-2-butyl-1,3-propanal quinoneimine [PHBPQ]

IC50 ([2]; Homo sapiens, PBMC): > 40 µM
IC50 ([3]; Homo sapiens, 72 h): 30 ± 10 µM
Molecule: CCCCC1C(=O)N(c2ccccc2)N(c2ccccc2)C1=O [PB, phenbutazone]
shape of dose-response curve for GM-CSF inhibition ([3]; three days incubation, up to 40 μM): shallow dose-response curve

The next lines start with the molecule.

Molecule: CCCCC1C(=O)N(c2ccccc2)N(c2ccc(O)cc2)C1=O (stereo not shown) [OPB, oxyphenbutazone]
IC50 ([2]; Homo sapiens, PBMC): 13 ± 12 µM
concentration needed to inhibit IL-6 production compared to 4-OH-OPB [2, 7]: higher concentration
IC50 ([3]; Homo sapiens, 72 h): 25 ± 7 µM
concentration inhibiting GM-CSF production (total inhibition) ([3]; three days incubation): around 40 μM

Molecule: O=C1N(c2ccccc2)N(c2ccc(O)cc2)C(=O)C1(O)CCS(=O)(=O)c1ccccc1 (stereo not shown) [4-OH-OPS, 4-ethylsuphonphenyl-4-hydroxy-1-phenyl-2-hydroxyphenyl-3,5-pyrazoladinedione]
concentration needed to inhibit IL-6 production compared to 4-OH-OPB [2, 7]: higher concentration
IC50 ([2]; PBMC): 13 ± 4 µM
IC50 [3]: 30 ± 10 µM
concentration inhibiting GM-CSF production (total inhibition) ([3]; three days incubation): around 40 μM

Molecule: CCCCC1(O)C(=O)N(c2ccccc2)N(c2ccc(O)cc2)C1=O (stereo not shown) [4-OH-OPB, 4-Hydroxy-oxyphenbutazone]
IC50 ([2]; Homo sapiens, PBMC): 0.6 ± 0.6 µM
cytokine inhibitory activity (IL-6 and GM-CSF production by PBMC in vitro) ([2]; IL-6 and GM-CSF production by PBMC in vitro): best inhibitor
factor by which the IL-6 inhibiting concentration is lower than that for GM-CSF [2, 7]: 2
IC50 ([3]; Homo sapiens, 72 h): 0.8 ± 0.5 µM
concentration inhibiting GM-CSF production (total inhibition) ([3]; three days incubation): 1.25 µM
adverse events attributable to the compound [4]: No adverse events
complaints of epigastric pain [4]: no complaints of epigastric pain
inhibition of LOS-induced monokines compared with IL-6 ([5]; LOS-induced, monocytes): inhibited identically
inhibition of SAC induced monokine production ([5]; SAC (heat killed staphylococcus aureus cells) stimulus): also inhibited
inhibition of cytokine production induced by other stimuli ([6]; PMA/ionomycin, PMA/anti-CD28 or anti-CD2/anti-CD28 antibodies): inhibited at similar concentration
effect on production of lymphocyte specific cytokines (Th1 and Th2) ([6]; anti-CD3/anti-CD28 stimulation): identical to the inhibition found for GM-CSF
